Values quoted from earlier work in US20230285409A1, “METHODS OF USING RHO KINASE INHIBITORS TO TREAT VASCULAR DEMENTIA” (Woolsey Pharmaceuticals, Inc., priority 2020, published 2023).
Where a name gives a salt, the structure may show the parent alone.

How the values were obtained:
[1] = target: p38 mitogen-activated protein kinase (Homo sapiens, UniProt Q16539); details: cited from earlier work
VaD patients = details: cited from earlier work
[2] = tested on: patients with wandering due to VaD; details: cited from earlier work
[3] = tested on: triple transgenic mouse model (APP Swedish, MAPT P301L, and PSEN1 M146V); details: 10 mg/kg/day intraperitoneally; cited from earlier work
APP/PS1 transgenic mice = details: 5 and 10 mg/kg/day intraperitoneally; cited from earlier work
streptozotocin rats = details: 5 and 10 mg/kg/day intraperitoneally; cited from earlier work
triple transgenic mice = details: 30 mg/kg and 100 mg/kg in water, 10 or 12 months of age; cited from earlier work
[4] = in vivo, 1-hydroxy metabolite; cited from earlier work

Sequence of p38 mitogen-activated protein kinase (Q16539 whole entry): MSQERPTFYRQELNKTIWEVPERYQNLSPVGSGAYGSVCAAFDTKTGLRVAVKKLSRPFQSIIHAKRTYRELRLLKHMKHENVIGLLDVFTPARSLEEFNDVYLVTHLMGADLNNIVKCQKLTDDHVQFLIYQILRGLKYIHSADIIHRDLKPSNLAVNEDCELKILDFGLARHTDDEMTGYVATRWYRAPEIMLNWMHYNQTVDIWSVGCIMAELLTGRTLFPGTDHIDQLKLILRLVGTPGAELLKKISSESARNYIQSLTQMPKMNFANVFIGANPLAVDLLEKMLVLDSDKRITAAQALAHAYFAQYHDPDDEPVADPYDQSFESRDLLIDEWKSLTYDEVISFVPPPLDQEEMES

Structure (SMILES): O=c1ncn2nc(Sc3ccc(F)cc3F)ccc2c1-c1c(Cl)cccc1Cl [Neflamapimod]
- primary endpoint of improving episodic memory ([1]; Phase 2): failed its primary endpoint
- tau in the cerebrospinal fluid ([1]; Phase 2): reducing tau
- Aβ deposition ([1]; in humans): no effect on Aβ deposition

Structure (SMILES): O=S(=O)(c1cccc2cnccc12)N1CCCNCC1 [fasudil, Hexahydro-1-(5-Isoquinolinesulfonyl)-1H-1,4-Diazepine Monohydrochloride Hemihydrate]
- MMSE differential versus control (VaD patients; 30 mg iv daily, control intravenous ligustrazine): 7 point
- improvement in MMSE over baseline (VaD patients; 30 mg iv infusion daily, 2 weeks, 2 days off, 2 more weeks, mean or median unclear): 9 point
- ADL score after treatment (VaD patients; after treatment, baseline 54, >26 functionally impaired): 36
- MMSE score after treatment (VaD patients; after treatment, baseline mean about 17): ~27
- cognitive improvements (MMSE) ([2]; 30 mg and 60 mg per day, case studies): about 3 points
- dose response ([2]; 30 mg and 60 mg per day): no dose response
- spatial orientation ([2]; case studies): no improvement in spatial orientation
- wandering symptoms ([2]; patient with Binswanger-type cerebral infarction, within weeks of beginning treatment): wandering symptoms disappeared
- ß-amyloid plaques in vivo [3]: reduce ß-amyloid plaques
- latency distance and quadrant time in the Morris water maze (APP/PS1 transgenic mice): improved
- latency distance and quadrant time in the Morris water maze (streptozotocin rats): improved
- spatial memory (triple transgenic mice): did not observe improvements in spatial memory

Structure (SMILES): O=S(=O)(c1cccc2c(O)nccc12)N1CCCNCC1 [M3]
- half-life [4]: about 8 hours
